Laboratory results from ChEMBL document CHEMBL1821652, “QSAR models for predicting enzymatic hydrolysis of new chemical entities in 'soft-drug' design” (Bioorg Med Chem, 2009).

Experiment: Half life in human plasma
Format: ADME, cell-free
Molecule `Nc1ccc(S(=O)(=O)N(COC(=O)c2ccccc2)c2cncs2)cc1` has a half-life of 0.12 min.
Work on `CCCCC(=O)OCn1cnc2c1c(=O)n(C)c(=O)n2C` yielded a half-life of 0.19 min.
In the case of `CCOC(=O)CNC(=O)OCOC(=O)c1ccccc1`, the half-life is reported as 0.24 min.
With `CCOC(=O)CN(C)C(=O)OCOC(=O)c1ccccc1` the half-life was 0.41 min.
For `CCOC(=O)CNC(=O)OCOC(=O)c1cccnc1`, the half-life was 0.43 min.
For `CCCN(CCC)Cc1cccc(C(=O)OCCOCn2cnc3c(=O)[nH]c(N)nc32)c1`, the half-life was 0.8 min.
Work on `CCOC(=O)c1ccc(/N=N/N(C)C(=O)OCOC(=O)c2ccccc2OC(C)=O)cc1` yielded a half-life of 1 min.
For `Nc1ccc(S(=O)(=O)N(COC(=O)c2ccccc2)c2ncccn2)cc1`, the half-life was 1.38 min.
In the case of `CCOC(=O)CNC(=O)OCOC(=O)C(C)(C)Oc1ccc(Cl)cc1`, the half-life is reported as 1.63 min.
`CCCCC(=O)OCN1C(=O)NC(c2ccccc2)(c2ccccc2)C1=O` gave a half-life of 1.9 min.
For `CS(=O)(=O)N(COC(=O)c1ccccc1)c1ccc([N+](=O)[O-])cc1Oc1ccccc1`, the half-life was 1.93 min.
Work on `CCCCN(CCCC)Cc1cccc(C(=O)OCCOCn2cnc3c(=O)[nH]c(N)nc32)c1` yielded a half-life of 2.3 min.
`CCOC(=O)CN(C)C(=O)OCOC(=O)[C@@H](C)c1ccc2cc(OC)ccc2c1` gave a half-life of 2.72 min.
With `COC(=O)[C@@H]1CCCN1C(=O)OCOC(=O)c1ccccc1` the half-life was 3.48 min.
For `CCOC(=O)CNC(=O)OCOC(=O)Cc1ccccc1Nc1c(Cl)cccc1Cl`, the half-life was 4.17 min.
For `Nc1nc2c(ncn2COCCOC(=O)c2cccc(CN3CCOCC3)c2)c(=O)[nH]1`, the half-life was 4.6 min.
In the case of `CCOC(=O)CN(COC(=O)[C@@H]1N2C(=O)[C@@H](NC(=O)Cc3ccccc3)[C@H]2SC1(C)C)C(=O)c1ccccc1`, the half-life is reported as 5.1 min.
`O=C(OC[C@H]1O[C@@H](n2cc(F)c(=O)[nH]c2=O)C[C@@H]1O)[C@@H]1CCCN1` gave a half-life of 5.7 min.
For `Cc1noc(N(COC(=O)c2ccccc2)S(=O)(=O)c2ccc(N)cc2)c1C`, the half-life was 5.78 min.
Molecule `O=C(OC[C@H]1O[C@@H](n2cc(F)c(=O)[nH]c2=O)C[C@@H]1OC(=O)[C@@H]1CCCN1)[C@@H]1CCCN1` has a half-life of 6 min.
In the case of `C[C@H](NC(=O)[C@H](N)CCC(=O)OCc1ccc([N+](=O)[O-])cc1)C(=O)O`, the half-life is reported as 6.8 min.
Work on `CC(=O)OCOC(=O)N(C)/N=N/c1ccc(C#N)cc1` yielded a half-life of 7 min.
Molecule `CN(C)Cc1cccc(C(=O)OCCOCn2cnc3c(=O)[nH]c(N)nc32)c1` has a half-life of 7 min.
For `C[C@H](NC(=O)[C@H](N)CC(=O)OCc1ccc([N+](=O)[O-])cc1)C(=O)O`, the half-life was 7.2 min.
With `CCN(CC)Cc1cccc(C(=O)OCCOCn2cnc3c(=O)[nH]c(N)nc32)c1` the half-life was 7.5 min.
For `Nc1nc2c(ncn2COCCOC(=O)c2cccc(CN3CCCCC3)c2)c(=O)[nH]1`, the half-life was 8.5 min.
With `CCN(CC)C(=O)COC(=O)[C@H]1O[C@@H](Oc2cc3oc(-c4ccc(O)cc4)cc(=O)c3c(O)c2O)[C@H](O)[C@@H](O)[C@@H]1O` the half-life was 10 min.
Molecule `CCOC(=O)CN(COC(=O)[C@@H]1N2C(=O)[C@@H](NC(=O)c3c(-c4c(Cl)cccc4Cl)noc3C)[C@H]2SC1(C)C)C(=O)c1ccccc1` has a half-life of 10.1 min.
In the case of `Cc1ncc([N+](=O)[O-])n1CCOC(=O)CCCCCCCCC(=O)OCCn1c([N+](=O)[O-])cnc1C`, the half-life is reported as 10.2 min.
With `CCCCOC(=O)[C@H](Cc1ccccc1)NC(=O)CN.Cl` the half-life was 11.5 min.
`CCOC(=O)c1ccc(/N=N/N(C)C(=O)OCOC(C)=O)cc1` gave a half-life of 12 min.
Work on `CCOC(=O)CN(COC(=O)c1ccccc1)C(=O)c1ccccc1` yielded a half-life of 12 min.
For `O=C(O[C@H]1C[C@H](n2cc(F)c(=O)[nH]c2=O)O[C@@H]1CO)[C@@H]1CCCN1`, the half-life was 13.8 min.
For `CC(=O)OCOC(=O)N(C)/N=N/c1ccc(C)cc1`, the half-life was 15 min.
`Cc1ncc([N+](=O)[O-])n1CCOC(=O)CCCCC(=O)OCCn1c([N+](=O)[O-])cnc1C` gave a half-life of 16.8 min.
Molecule `CC(=O)OCOC(=O)N(C)/N=N/c1ccc(Br)cc1` has a half-life of 17 min.
Work on `CCCCC(=O)OC[C@H]1O[C@@H](n2cnc3c(NC4CCCC4)ncnc32)[C@H](O)[C@@H]1O` yielded a half-life of 18 min.
With `Cc1cn([C@H]2C=C[C@@H](COC(=O)CN3CCNCC3)O2)c(=O)[nH]c1=O` the half-life was 20 min.
`CCOC(=O)CNC(=O)OCOC(=O)c1ccccc1Nc1cccc(C(F)(F)F)c1` gave a half-life of 21.8 min.
`CCOC(=O)CSCC(=O)[C@@]12OC(C)(C)O[C@@H]1C[C@H]1[C@@H]3C[C@H](F)C4=CC(=O)C=C[C@]4(C)[C@@]3(F)[C@@H](O)C[C@@]12C` showed a half-life of 24 min.
Work on `CC(C)C(=O)Oc1ccc2c3c1O[C@H]1C(=O)CC[C@@]4(O)[C@@H](C2)N(CC2CC2)CC[C@]314` yielded a half-life of 24.6 min.
For `CCN(CC)Cc1ccc(C(=O)OCCOCn2cnc3c(=O)[nH]c(N)nc32)cc1`, the half-life was 17 min.
`CCCCC/C=C\C/C=C\C/C=C\CCCCC(=O)OCn1cnc2c1c(=O)n(C)c(=O)n2C` gave a half-life of 27.3 min.
With `CCCCCCCC(=O)OC[C@H]1O[C@@H](n2cnc3c(NC4CCCC4)ncnc32)[C@H](O)[C@@H]1O` the half-life was 28 min.
For `NCCCC[C@H](N)C(=O)OC[C@H]1O[C@@H](n2cc(F)c(=O)[nH]c2=O)C[C@@H]1OC(=O)[C@@H](N)CCCCN`, the half-life was 29.5 min.
Molecule `Cc1cn([C@H]2C=C[C@@H](COC(=O)CN(C)C)O2)c(=O)[nH]c1=O` has a half-life of 30 min.
`CCC(=O)Oc1c(-c2ccc(O)c(O)c2)oc2cc(O)cc(O)c2c1=O` gave a half-life of 31.2 min.
In the case of `CC(C)CC(=O)Oc1ccc2c3c1O[C@H]1C(=O)CC[C@@]4(O)[C@@H](C2)N(CC2CC2)CC[C@]314`, the half-life is reported as 32.4 min.
In the case of `CN(C)Cc1ccc(C(=O)OCCOCn2cnc3c(=O)[nH]c(N)nc32)cc1`, the half-life is reported as 33 min.
Molecule `CCN(CC)CC(=O)OCCn1c([N+](=O)[O-])cnc1C.Cl` has a half-life of 33.6 min.
`CCOC(=O)c1ccc(/N=N/N(C)C(=O)OCOC(=O)c2ccccc2O)cc1` gave a half-life of 34 min.
With `Cc1ncc([N+](=O)[O-])n1CCOC(=O)CCCC(=O)OCCn1c([N+](=O)[O-])cnc1C` the half-life was 36.6 min.
`COc1ccc2cc([C@H](C)C(=O)OCCOCCO)ccc2c1` gave a half-life of 38.6 min.
For `NCCCC[C@H](N)C(=O)OC[C@H]1O[C@@H](n2cc(F)c(=O)[nH]c2=O)C[C@@H]1O`, the half-life was 38.8 min.
Molecule `CC(C)OC(=O)Oc1ccc2c3c1O[C@H]1C(=O)CC[C@@]4(O)[C@@H](C2)N(CC2CC2)CC[C@]314` has a half-life of 39 min.
`O=C(OCN(C(=O)c1ccccc1)c1ccccc1)c1ccccc1` gave a half-life of 40 min.
Molecule `Cc1cc(C)nc(N(COC(=O)c2ccccc2)S(=O)(=O)c2ccc(N)cc2)n1` has a half-life of 41.4 min.
For `CCCCCCCCOC(=O)[C@H](Cc1ccccc1)NC(=O)CN.Cl`, the half-life was 42.5 min.
For `O=C(OC[C@H]1O[C@@H](n2cnc3c(NC4CCCC4)ncnc32)[C@H](O)[C@@H]1O)C1CCCCC1`, the half-life was 45 min.
With `CCCN(CCC)S(=O)(=O)c1ccc(C(=O)OCN(CC(=O)OCC)C(=O)c2ccccc2)cc1` the half-life was 46 min.
Work on `CCC1CCN(CC(=O)OCCn2c([N+](=O)[O-])cnc2C)CC1` yielded a half-life of 46.5 min.
`CCOC(=O)c1ccc(/N=N/N(C)C(=O)OCOC(=O)c2ccccc2)cc1` showed a half-life of 47 min.
Molecule `NCCCC[C@H](N)C(=O)O[C@H]1C[C@H](n2cc(F)c(=O)[nH]c2=O)O[C@@H]1CO` has a half-life of 51 min.
Molecule `N[C@@H](CC(=O)O)C(=O)O[C@H]1C[C@H](n2cc(F)c(=O)[nH]c2=O)O[C@@H]1CO` has a half-life of 53.9 min.
In the case of `CCCN(CCC)Cc1ccc(C(=O)OCCOCn2cnc3c(=O)[nH]c(N)nc32)cc1`, the half-life is reported as 9 min.
`Cc1cn([C@H]2C=C[C@@H](COC(=O)CNNC(=O)c3ccncc3)O2)c(=O)[nH]c1=O` showed a half-life of 60 min.
Work on `Cc1cn([C@H]2C=C[C@@H](COC(=O)CNC(=O)c3ccncn3)O2)c(=O)[nH]c1=O` yielded a half-life of 60 min.
With `Cc1cn(CCOC(=O)CC[C@H](N)C(=O)N(C)CC(=O)O)c(=O)[nH]c1=O` the half-life was 61.3 min.
In the case of `CCCCCCCCCCOC(=O)[C@H](Cc1ccccc1)NC(=O)CN.Cl`, the half-life is reported as 61.5 min.
Molecule `CCCC(=O)Oc1c(-c2ccc(O)c(O)c2)oc2cc(O)cc(O)c2c1=O` has a half-life of 63 min.
For `COc1ccc2cc([C@H](C)C(=O)OCN(C)C(=O)c3ccccc3)ccc2c1`, the half-life was 72 min.
`CC(C)C[C@H]1NC(=O)[C@H](Cc2ccccc2)NC(=O)CNC(=O)[C@@H](C)NC(=O)[C@H](Cc2ccc(O)cc2)NC(=O)/C=C\c2ccccc2OC1=O` gave a half-life of 72 min.
`CN(CC(=O)O)C(=O)[C@@H](N)CCC(=O)OCCOCn1cnc2c(=O)[nH]c(N)nc21` showed a half-life of 72.7 min.
In the case of `CN(CC(=O)O)C(=O)[C@@H](N)CCC(=O)OCc1ccccc1`, the half-life is reported as 73.2 min.
In the case of `CCCCCCCCCCCC(=O)Oc1c(-c2ccc(O)c(O)c2)oc2cc(O)cc(O)c2c1=O`, the half-life is reported as 73.2 min.
`CCOC(=O)CN(COC(=O)[C@@H](C)c1ccc2cc(OC)ccc2c1)C(=O)c1ccccc1` showed a half-life of 78 min.
For `O=C(OCc1ccccc1)[C@H]1O[C@@H](Oc2cc3oc(-c4ccc(O)cc4)cc(=O)c3c(O)c2O)[C@H](O)[C@@H](O)[C@@H]1O`, the half-life was 88 min.
`CCCCOC(=O)[C@@H](N)Cc1ccc(O)c(O)c1` gave a half-life of 96 min.
With `C[C@H](NC(=O)[C@H](N)CCC(=O)OCCc1ccccc1)C(=O)O` the half-life was 97 min.
In the case of `CC(C)(C)C(=O)OCN(c1ccc([N+](=O)[O-])cc1Oc1ccccc1)S(C)(=O)=O`, the half-life is reported as 102 min.
With `N[C@@H](Cc1ccc(O)c(O)c1)C(=O)OCCCCO` the half-life was 105 min.
Work on `CCCCCCCCCCCCOC(=O)[C@H](Cc1ccccc1)NC(=O)CN.Cl` yielded a half-life of 112 min.
In the case of `C[C@H](NC(=O)[C@H](N)CCC(=O)OCc1ccc(F)cc1)C(=O)O`, the half-life is reported as 120 min.
Work on `CC(C)C[C@H]1NC(=O)[C@H](Cc2ccccc2)NC(=O)CNC(=O)[C@@H](C)NC(=O)[C@H](Cc2ccc(O)cc2)NC(=O)OCOC1=O` yielded a half-life of 124 min.
In the case of `CCCCC(=O)OCOC(=O)Cc1c(C)n(C(=O)c2ccc(Cl)cc2)c2ccc(OC)cc12`, the half-life is reported as 124 min.
For `C[C@]12CCC(=O)C=C1CC[C@@H]1[C@@H]2[C@@H](O)C[C@@]2(C)[C@H]1CC[C@]2(O)C(=O)OCCl`, the half-life was 132 min.
`C[C@H](NC(=O)[C@H](N)CCC(=O)OCc1ccccc1)C(=O)O` showed a half-life of 158 min.
`CCOC(=O)CN(COC(=O)Cc1ccccc1Nc1c(Cl)cccc1Cl)C(=O)c1ccccc1` gave a half-life of 162 min.
Molecule `CN(CC(=O)O)C(=O)[C@@H](N)CC(=O)OCc1ccccc1` has a half-life of 180 min.
For `CCCSc1ccc2c(c1)nc(NC(=O)OC)n2C(=O)OCC`, the half-life was 8.32 min.
`CCCSc1ccc2nc(NC(=O)OC)n(C(=O)OCC)c2c1` showed a half-life of 7.19 min.
`Nc1nc(O)c2ncn(COCCOC(=O)c3ccc(CN4CCOCC4)cc3)c2n1` gave a half-life of 3.7 min.
In the case of `CCCSc1ccc2c(c1)nc(NC(=O)OC)n2COC(=O)c1ccc(CN)cc1.Cl.Cl`, the half-life is reported as 55.8 min.
Work on `N[C@@H](CC(=O)O)C(=O)OC[C@H]1O[C@@H](n2cc(F)c(=O)[nH]c2=O)C[C@@H]1O` yielded a half-life of 38.6 min.
